According to the CheMixHub viscosity set:

Test: xn = mol fraction of the nth substance listed

NCCO.O=CO + CC(C)(N)CO
viscosity [mPa·s], 100 kPa
Conditions | x1 = 0.1475 | x1 = 0.2287 | x1 = 0.3157 | x1 = 0.409 | x1 = 0.5093 | x1 = 0.6175 | x1 = 0.7346
298.15 K | 170.6 | 165.1 | 148.3 | 126.5 | 107.4 | 84.75 | 64.21
303.15 K | 118.8 | 113 | 103.2 | 90.68 | 78.55 | 62.99 | 49.24
308.15 K | 82.33 | 79.18 | 74.33 | 66.23 | 58.35 | 47.99 | 38.25
313.15 K | 58.68 | 57.28 | 54.44 | 49.47 | 44.41 | 37.11 | 30.16
318.15 K | 42.89 | 42.1 | 40.82 | 37.69 | 34.31 | 29.35 | 24.25
323.15 K | 31.84 | 31.65 | 31.24 | 29.32 | 27.04 | 23.55 | 19.78

Cc1ccc(C)cc1 + CC(C)=O
307.35 K, 101.33 kPa
Conditions | viscosity [mPa·s]
x2 = 0.1403 | 0.5
x2 = 0.4308 | 0.429
x2 = 0.5768 | 0.4
x2 = 0.6298 | 0.385
x2 = 0.7285 | 0.353
x2 = 0.9118 | 0.311

OCCOCCO + CC(C)=O
298.1 K, 101 kPa
Conditions | viscosity [mPa·s]
x1 = 0.2 | 0.682
x1 = 0.4 | 1.669
x1 = 0.5 | 2.655
x1 = 0.6 | 4.301
x1 = 0.8 | 11.1

Cc1ccc(C)cc1 + CC(C)CC(C)(C)C
308.15 K, 101 kPa
Conditions | viscosity [mPa·s]
x2 = 0.072 | 0.5266
x2 = 0.1401 | 0.5074
x2 = 0.2197 | 0.4893
x2 = 0.3074 | 0.4732
x2 = 0.4051 | 0.4595
x2 = 0.507 | 0.4479
x2 = 0.6185 | 0.44
x2 = 0.7382 | 0.4348
x2 = 0.8619 | 0.4333

O=Cc1ccccc1 + CC(C)CCO
298.1 K, 101 kPa
Conditions | viscosity [mPa·s]
x1 = 0.1103 | 2.842
x1 = 0.202 | 2.39
x1 = 0.2988 | 2.057
x1 = 0.3333 | 1.959
x1 = 0.4051 | 1.809
x1 = 0.4839 | 1.67
x1 = 0.6101 | 1.51
x1 = 0.6944 | 1.44
x1 = 0.7979 | 1.373
x1 = 0.8987 | 1.34

CC(C)CCCC(C)CCCC(C)CCCCC(C)CCCC(C)CCCC(C)C (stereo unspecified) + CC(C)CO
101 kPa
Conditions | viscosity [mPa·s]
298.15 K, x2 = 0.1032 | 22.85
308.15 K, x2 = 0.1672 | 13.45

CCCC[N+](CCCC)(CCCC)CCCC.[Cl-] + CC(C)C[C@H](N)C(=O)O
Conditions | viscosity [mPa·s]
313.15 K, 100 kPa, x1 = 0.9 | 943

CC(C)CCCC(C)CCCC(C)CCCCC(C)CCCC(C)CCCC(C)C (stereo unspecified) + CC(C)O
viscosity [mPa·s], 101 kPa
Conditions | x2 = 0.0621 | x2 = 0.218 | x2 = 0.4022
298.15 K | – | 19.65 | –
303.15 K | 18.75 | 15.45 | 13.05

C[N+](C)(C)CCO.[Cl-] + CC(O)CO
Conditions | viscosity [mPa·s]
293.15 K, 100 kPa, x1 = 0.25 | 89.38
293.15 K, 101 kPa, x2 = 0.8 | 95.09
293.15 K, 101.3 kPa, x2 = 0.7498 | 94.05
293.15 K, 101.3 kPa, x2 = 0.8003 | 80.19
293.15 K, 101.3 kPa, x2 = 0.8328 | 73.34
293.15 K, 101.3 kPa, x2 = 0.8567 | 70.57
298 K, 100 kPa, x1 = 0.333 | 95.5
298 K, 101.3 kPa, x1 = 0.333 | 70
298.15 K, 100 kPa, x1 = 0.25 | 68.43
298.15 K, 101.3 kPa, x2 = 0.7498 | 72.1
298.15 K, 101.3 kPa, x2 = 0.8003 | 61.49
298.15 K, 101.3 kPa, x2 = 0.8328 | 57.12
298.15 K, 101.3 kPa, x2 = 0.8567 | 55.1
298.15 K, 101.33 kPa, x2 = 0.7 | 36
303 K, 100 kPa, x1 = 0.333 | 74.2
303.15 K, 100 kPa, x1 = 0.25 | 53.34
303.15 K, 101 kPa, x2 = 0.8 | 56.64
303.15 K, 101.3 kPa, x2 = 0.7498 | 56.26
303.15 K, 101.3 kPa, x2 = 0.8003 | 47.74
303.15 K, 101.3 kPa, x2 = 0.8328 | 44.41
303.15 K, 101.3 kPa, x2 = 0.8567 | 43.01
308 K, 100 kPa, x1 = 0.333 | 57.6
308.15 K, 100 kPa, x1 = 0.25 | 42.26
308.15 K, 101.3 kPa, x2 = 0.7498 | 44.5
308.15 K, 101.3 kPa, x2 = 0.8003 | 37.47
308.15 K, 101.3 kPa, x2 = 0.8328 | 34.61
308.15 K, 101.3 kPa, x2 = 0.8567 | 33.33
313 K, 100 kPa, x1 = 0.333 | 46.2
313.15 K, 100 kPa, x1 = 0.25 | 33.93
313.15 K, 101 kPa, x2 = 0.8 | 36.06
313.15 K, 101.3 kPa, x2 = 0.7498 | 35.89
313.15 K, 101.3 kPa, x2 = 0.8003 | 30.4
313.15 K, 101.3 kPa, x2 = 0.8328 | 27.67
313.15 K, 101.3 kPa, x2 = 0.8567 | 26.42
318 K, 100 kPa, x1 = 0.333 | 37.9
318.15 K, 100 kPa, x1 = 0.25 | 27.71
318.15 K, 101.3 kPa, x2 = 0.7498 | 29.15
318.15 K, 101.3 kPa, x2 = 0.8003 | 24.7
318.15 K, 101.3 kPa, x2 = 0.8328 | 22.49
318.15 K, 101.3 kPa, x2 = 0.8567 | 21.11
323 K, 100 kPa, x1 = 0.333 | 31.8
323 K, 101.3 kPa, x1 = 0.333 | 19
323.15 K, 100 kPa, x1 = 0.25 | 22.88
323.15 K, 101 kPa, x2 = 0.8 | 24.26
323.15 K, 101.3 kPa, x2 = 0.7498 | 24.25
323.15 K, 101.3 kPa, x2 = 0.8003 | 20.43
323.15 K, 101.3 kPa, x2 = 0.8328 | 18.56
323.15 K, 101.3 kPa, x2 = 0.8567 | 17.41

Cc1ccc(C)cc1 + CCC(C)O
308.15 K, 101 kPa
Conditions | viscosity [mPa·s]
x2 = 0.0429 | 0.553
x2 = 0.1028 | 0.562
x2 = 0.2013 | 0.591
x2 = 0.3192 | 0.645
x2 = 0.4044 | 0.721
x2 = 0.5085 | 0.792
x2 = 0.6631 | 0.932
x2 = 0.7494 | 1.111
x2 = 0.8285 | 1.32
x2 = 0.9012 | 1.61
x2 = 0.9684 | 1.782

CC(C)CCCC(C)CCCC(C)CCCCC(C)CCCC(C)CCCC(C)C (stereo unspecified) + CCCC
viscosity [mPa·s]
Conditions | x1 = 0.161 | x1 = 0.162 | x1 = 0.316 | x1 = 0.319 | x1 = 0.555 | x1 = 0.559 | x1 = 0.721 | x1 = 0.724
293.15 K, 101 kPa | 1.06 | – | 3 | – | 9.55 | – | 16.5 | –
293.15 K, 101.33 kPa | 1.06 | – | 3 | – | 9.55 | – | 16.5 | –
313.15 K, 101 kPa | – | 0.797 | – | 2.04 | – | 5.26 | – | 8.16
313.15 K, 101.33 kPa | – | 0.797 | – | 2.04 | – | 5.26 | – | 8.16

CC(C)CCCC(C)CCCC(C)CCCCC(C)CCCC(C)CCCC(C)C (stereo unspecified) + CCCCCC
viscosity [mPa·s]
Conditions | 293.15 K | 298.15 K | 313.15 K
100 kPa, x1 = 0.235 | 1.91 | – | 1.36
100 kPa, x1 = 0.511 | 7.76 | – | 4.15
100 kPa, x1 = 0.743 | 17.5 | – | 8.25
101 kPa, x1 = 0.129 | 0.972 | – | 0.739
101 kPa, x1 = 0.268 | 2.45 | – | 1.63
101 kPa, x1 = 0.469 | 6.3 | – | 3.62
101 kPa, x1 = 0.5661 | – | 10.15 | –
101 kPa, x1 = 0.762 | 18.3 | – | 8.84
101.33 kPa, x1 = 0.129 | 0.972 | – | 0.739
101.33 kPa, x1 = 0.268 | 2.45 | – | 1.63
101.33 kPa, x1 = 0.469 | 6.3 | – | 3.62
101.33 kPa, x1 = 0.762 | 18.3 | – | 8.84

CCCCCCCCCCCCCCCCCC(=O)OC + CCCCCC
viscosity [mPa·s], 101 kPa
Conditions | x1 = 0.05 | x1 = 0.1 | x1 = 0.15 | x1 = 0.2 | x1 = 0.25 | x1 = 0.3
298 K | 0.48 | 0.67 | 0.85 | 1.08 | 1.22 | 1.41
303 K | 0.46 | 0.63 | 0.79 | 0.99 | 1.13 | 1.3
308 K | 0.44 | 0.59 | 0.74 | 0.92 | 1.05 | 1.21
313 K | 0.42 | 0.55 | 0.69 | 0.85 | 0.98 | 1.12
